Experimental data reported in patent US6416965B2, “Screening methods for presqualene disphosphate analogs” (Brigham and Women's Hospital, priority 1997, dated 2002).

Tests used:
[1] = test system: electroporated neutrophils; test: Superoxide anion generation (NADPH oxidase activity) by electroporated neutrophils; type: cell-based, human
From the text: To test the impact of compounds VI and VIII on neutrophil responses, the isolated lipids were introduced into neutrophils by electroporation prior to determining NADPH oxidase activity. […] Prenyl cysteine analogues can disrupt G-protein interaction with activated FMLP receptors (Scheer, A. & Gierschik, P. Biochemistry. 34,4952-4961 (1995), the teachings of which are incorporated herein by reference); therefore to determine compound VI's level of action, neutrophil superoxide anion generation was examined in the presence of phorbol 12-myristate 13-acetate (PMA), a potent trigger for O2- production which bypasses cell surface receptors to stimulate protein kinase C and subsequent NADPH assembly (see for example, Baggiolini, M., Boulay, F., Badwey, J. A. & Curnutte, J. T. FASEB J. 7, […] (1993); FIG. 3c).
After electroporation, cells in cytochrome c (0.7 mg/ml) were exposed (10 min, 37° C.) to PMA (10^−7 M), FMLP (10^−7 M) plus cytochalasin b (15 μg/ml), compound VI (1 μM) or compound VIII (1 μM) and supernatants monitored at 550 nm. Values represent the mean±SEM for n≧4.
(§1) Neutrophils (10^7/500 μl) were electroporated (1.65 kV/cm, 250 μF, Ω∞, Invitrogen Electroporator VI) at 0° C. in the presence of 10−^9-10−^6 M compound VI, VIII, FDP, FMP, squalene or vehicle (ethanol 0.2%). After electroporation, cells, in cytochrome c (0.7 mg/ml), were exposed (10 minutes, 37° C.) to either cytochalasin b (5 μg/mL) and FMLP (10^−7 M)(a) or PMA ((10^−7 M)(b) and supernatants monitored at […]. Electroporation gave a 49.9% reduction in FMLP-stimulated NADPH oxidase compared to naive cells. Values (FIGS. 4a and 4b) represent the mean±SEM for n≧3, d≧6. For adhesion (FIGS. 4c and 4d), changes in light transmittance were monitored (as in Fiore, S., Nicolaou, K. C., Caulfield, T., Kataoka, H. & Serhan, C. N. Biochem. J. 266, 25-31 (1990), the teachings of which are incorporated herein by reference) after addition of compounds VI, VIII (1.6 μM) or vehicle (0.5 min) and FMLP (0.5-5 μM) (2.5 min). Cell viability remained>99%. Values represent the mean±SEM for n=3, d=9. 1,4,5-inositol-triphosphate levels were determined (Amersham) in fresh PMN (10^7 cells) exposed (5 minutes, 37° C.) to compound VI, compound VIII (1 μM) or vehicle and stimulated with FMLP (10^−7M, 37° C.) (as in FIG. 4e). % Inhibition after 10 second exposure to FMLP is reported as mean±SEM for n=4, d≧8. *p <0.05 in Student's paired t-test compared with control, while “NS” indicates no significant change compared to incubations in the presence of vehicle (ethanol 0.2%) alone. Stereochemistry of PSDP and PSMP (FIG. 4f) were assigned by routine methods (Poulter, C. D. and Rilling, H. C. Acc. Chem. Res. 11, 307-313, (1978), the teachings of which are hereby incorporated by reference).

Gst-Grb2 fusion protein = molecular target: T1, Gst-Grb2 fusion protein (Homo sapiens, UniProt P62993); test: PSDP equilibrium binding assay to GST-GRB2
T1 construct: purchased Upstate Biotechnology 14-128
Protocol: Equilibrium binding was determined for ^32PO4-PSDP (1 μM) to the adaptor protein, Grb2, which is known to carry two SH3 domains and one SH2 domain (Lowenstein, EJ, et al., Cell, 1992; 70:431). […] Bound material was separated from unbound by spin filtration (0.2 μm) and quantitated by scintillation counting.
To 100 μl of 0.9% NaCl was added 2 μg GST-GRB2 with 0-100 μg compound (e.g., delipidated human serum albumin, SH3-bearing SOS peptide or unlabeled PSDP) to be tested. The samples were prepared directly in the top of PGC spin filter tubes.
To the solution was added radiolabeled-PSDP in 1 μl ethanol. The mixture was vortexed and incubated at 37° C. for 30 minutes. After the incubation period, the sample was centrifuged at 2000 rpm at 25° C. for 3 minutes. […] The filter was removed, placed in a scintillation vial and the amount of radioactivity bound to the trapped agarose complex (i.e., bound material) was determined.
1 ml of CHCl3:MeOH (2:1) was added to the filtrate (a clear interface should be evident). […] At this stage, dependent upon the amount of radioactivity present, the radioactivity of the sample was determined either in scintillation fluid or by phosphoimage after TLC. […]
Bound material is reflected in the filtrate by loss of radioactivity when radiolabeled material is incubated in the presence of the GRB2 complex compared to the absence of the agarose complex. […]

neutrophil sonicates = settings: Levy et al., Nature 1997; cited from earlier work
Phospholipase D (PLD) = test: Phospholipase D inhibition, choline release, Lineweaver-Burk analysis; type: biochemical; settings: PLD 3 units/125 μL, phosphatidyl choline substrate, 30° C., pH 7.5
From the text: Phospholipase D (PLD) plays a central role in cellular activation in diverse cell types via the release of the bioactive […], phosphatidate. Several agonists operating through different classes of receptors have been defined that stimulate cellular PLD activity. No known endogenous regulators of PLD have been identified. Activation of neutrophils leads to an increase in intracellular phosphatidic acid that is generated predominantly via the hydrolysis of phosphatidyl choline by phospholipase D (Agwu, DE, et al., Journal of Clinical Investigation 1991; 88:531). Because PSDP inhibited phosphatidate mediated superoxide anion generation in human neutrophil sonicates (Levy, BD, et al., Nature 1997; 389:985), its impact on phospholipase D was determined. A purified enzyme was utilized to directly evaluate the action of PSDP with PLD. Lineweaver-Burk plots for PLD (3 units/125 μL; EC 3.1.4.4, Sigma Chemical Co.) in the presence of EtOH (0.2%) or increasing concentrations of PSDP are reported in FIG. 5. After addition of PSDP to PLD (5 min, 30° C.), phosphatidyl choline (lecithin) in 60 mM Tris/HCl+10 mM CaCl2, pH 7.5 was added (30° C.) and reactions were terminated at 30 second intervals (t0-90 sec) with Tris-HCl (1 M) plus EDTA (50 mM). Choline release was quantitated as in Abousalham A. et al. Biochimica et Biophysica Acta 1;1158 (1993). […]

neutrophils [2] = test: fMLP-stimulated intracellular calcium mobilization in FURA-2 loaded neutrophils; type: cell-based, human; settings: PSDP 1 μM, 5 min 37° C.; 1 nM fMLP; EDTA 5 mM
Protocol: Inositol trisphosphate is known to be an important intracellular mediator of calcium mobilization from intracellular stores, a critical event in cellular activation (Exton, JH, Annual Review of Pharmacology and Toxicology 1996; 36:481). In order to determine the functional importance of the PSDP-mediated reduction in IP3 levels, fMLP-stimulated intracellular calcium mobilization in the presence of polyisoprenyl phosphates was measured. FURA-2 (1 μM) loaded neutrophils (10×10^6/2 ml) in the presence of EDTA (5 mM) were exposed (5 min, 37° C.) to PSDP (10−^5-10−^6 M) or EtOH (0.1%), followed by 1 nM fMLP. […] This inhibition was concentration dependent FIG. 7 and significant (n=3, mean±SEM, *P<0.05 by Student's t-test).

neutrophils [3] = test: Neutrophil homotypic adhesion (aggregation, light transmittance); type: cell-based, human
Protocol: as §1

T1 sequence (P62993 whole entry, the tested form may be a part): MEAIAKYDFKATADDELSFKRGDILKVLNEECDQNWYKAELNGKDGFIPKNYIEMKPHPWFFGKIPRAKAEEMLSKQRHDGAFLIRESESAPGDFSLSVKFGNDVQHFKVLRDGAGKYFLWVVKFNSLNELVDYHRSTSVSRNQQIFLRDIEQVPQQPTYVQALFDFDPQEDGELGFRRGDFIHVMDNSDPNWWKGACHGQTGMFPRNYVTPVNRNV

CC(C)=CCC/C(C)=C/CC/C(C)=C/C1C(COP(=O)(O)OP(=O)(O)O)C1(C)CC/C=C(\C)CCC=C(C)C (stereo in doubt) [Compound VI, presqualene diphosphate]
inhibition of PMA activated superoxide anion generation at 10 nM ([1]; compound 10 nM, PMA 100 nM): significant inhibition still present | inhibition of PMA activated superoxide anion generation ([1]; compound 1 μM, PMA 100 nM): 44% | inhibition of neutrophil superoxide anion generation ([1]; nM-μM amounts): inhibited | inhibition of the FMLP-triggered generation of superoxide anion ([1]; nM-μM quantities introduced by electroporation, FMLP 10^-7 M plus cytochalasin b): 60% | stimulation of O2- production by the compound alone ([1]; no agonist, 1 μM (FIG. 3c)): neither compound VI nor VIII alone stimulated | binding of radiolabeled PSDP to Gst-Grb2 complexed to agarose beads (Gst-Grb2 fusion protein; 32PO4-PSDP 1 μM, 20 min 37° C.): bound | competition of radioligand (32PO4-PSDP) off Gst-Grb2 (Gst-Grb2 fusion protein; excess unlabeled PSDP, albumin 50 μg, Sos 50 μg): could be competed off | inhibition of phosphatidate mediated superoxide anion generation in human neutrophil sonicates (neutrophil sonicates): inhibited | Ki (Phospholipase D (PLD)): < 0.1 µM | inhibition of fMLP-stimulated [Ca2+]i mobilization (neutrophils [2]): inhibition | stimulation of adhesion by the compound alone (neutrophils [3]; no agonist): neither compound VI nor VIII alone stimulated | inhibition of FMLP-stimulated homotypic adhesion (neutrophils [3]; μM levels): inhibited | inhibition of the aggregatory response to FMLP (homotypic adhesion) (neutrophils [3]; μM levels (1.6 μM), FMLP 0.5-5 μM, intact cells, p<0.001): 63%
